Like-named read-outs stand apart in the source and are kept apart here.
How the values were obtained:
HIV-1 variant Y181C = test: Cytopathic cell killing assay, cross-resistance profile, infected MT-4 cells; assay type: cell-based; details: isolate Y181C
Description: (§1) The various HIV isolates tested in the Figures are those corresponding to wild-type virus (NL4-3) and the other strains listed by their RT mutations. The three 4xAZT isolates included in the Figures represent AZT drug-resistant variants. For example, the 4xAZT/L100I isolate has five mutations: four mutations confer increased resistance to AZT, and the other mutation is located within the NNRTI binding pocket. TZB and nevir. (nevirapine) are two well-known NNRTIs, included in this experiment for comparison purposes. […]
(§2) In this Example, the antiviral and cellular toxicity of NNRTIs was investigated, using the cytopathic cell killing assay described by Yang (Yang et al., "Characteristics of a Group of Non-nucleoside Reverse Transcriptase Inhibitors with Structural Diversity and Potent Anti-Human Immunodeficiency Virus Activity," Leukemia 9:S75-S85 [1995]). Briefly, in this method cells (e.g., the CEM-SS cell line, available from the NIAID AIDS Research and Reference Program [ARRRP]) were seeded at a density of 5 x 10^3 cells/well, into the wells of a 96-well microtiter plate. The cells were then infected with HIV virus (either mutant or WT), at a multiplicity of infection (MOI) previously determined to provide complete cell killing by 6 days of culture post-infection (e.g., MOI of 0.01-0.05). Each of the HIV isolates was pre-titered to induce equivalent levels of infection based on cell killing or virus production, prior to their use in these assays. A range of test compound concentrations was added to the wells in triplicate (e.g., serial half-log dilutions) to evaluate inhibition of HIV infection. Controls for each assay included drug controls (drug colorimetric control wells), drug cytotoxicity control wells (cells with drug), virus control wells (cells with virus), and cell viability controls (cells only). Positive control drugs (e.g., AZT and ddC) were also run in parallel.
(§3) After six days of incubation at 37°C, cell viability was determined spectrophotometrically at 450 nm for each well, using the metabolic reduction of XTT to a soluble colored formazan. (See, Gartner and Popovic, "Virus Isolation and Production, in Aldovini and Walker (eds.), Techniques in HIV Research, Stockton Press, NY, pp. […] [1991]; and Nara and Fischinger, "Quantitative Infectivity Assay for HIV-1 and HIV-2," Nature 332:469-470 [1988]).
(§4) The in vitro therapeutic index (TI50) was defined as the fold-difference between the EC50 and IC50. The results for the various compounds are included in Figures 8 and 19.

HIV-1 variant K101E = test: as above; assay type: cell-based
Description: as §1, §2, §3, §4

HIV-1 variant V179D = test: as above; assay type: cell-based; details: isolate V179D
Description: as §1, §2, §3, §4

HIV-1 variant L74V = test: as above; assay type: cell-based
Description: as §1, §2, §3, §4

HIV-1 variant Y188C = test: as above; assay type: cell-based
Description: as §1, §2, §3, §4

HIV-1 isolate 4xAZT = test: as above; assay type: cell-based
Description: as §1, §2, §3, §4

HIV-1 variant L100I = test: as above; assay type: cell-based
Description: as §1, §2, §3, §4

HIV-1 variant V106A = test: as above; assay type: cell-based
Description: as §1, §2, §3, §4

HIV-1 variant V108I = test: as above; assay type: cell-based
Description: as §1, §2, §3, §4

[1] = tested on: HIV-1 isolate 4xAZT/Y181C; test: as above; assay type: cell-based
Description: as §1, §2, §3, §4

HIV-1 variant K103N = test: as above; assay type: cell-based; details: isolate K103N
Description: as §1, §2, §3, §4

HIV-1 variant A98G = test: as above; assay type: cell-based
Description: as §1, §2, §3, §4

WT virus (NL4-3) = test: microbe, parasite or virus in culture; assay type: cell-based, HIV-1; details: Human immunodeficiency virus 1, NL43, CEM-SS, read-out: EC50
Experimental: Evaluation of these compounds for the inhibition of HIV-1 was determined as the fifty percent cell culture inhibitory concentration (CIC50) in CEMSS cell culture with WT virus (NL4-3).
as §2, §3, §4

NL4-3 (WT) = test: Cytopathic cell killing assay, cross-resistance profile, infected MT-4 cells; assay type: cell-based, HIV-1
Description: as §1, §2, §3, §4

[2] = tested on: HIV-1 isolate 4xAZT/L100I; test: as above; assay type: cell-based
Experimental: The various HIV isolates tested in the Figures are those corresponding to wild-type virus (NL4-3) and the other strains listed by their RT mutations. The three 4xAZT isolates included in the Figures represent AZT drug-resistant variants. […]
as §2, with “Briefly,” for “In this Example, the antiviral and cellular toxicity of NNRTIs was investigated, using the cytopathic cell killing assay described by Yang (Yang et al., "Characteristics of a Group of Non-nucleoside Reverse Transcriptase Inhibitors with Structural Diversity and Potent Anti-Human Immunodeficiency Virus Activity," Leukemia 9:S75-S85 [1995]). Briefly,”
as §3
The in vitro therapeutic index (TI50) was defined as the fold-difference between the EC50 and IC50.

HIV-1 WT RT = molecular target: T1, HIV-1 WT RT (Human immunodeficiency virus type 1 group M subtype B, UniProt P03366); test: biochemical; details: for IC50: read-out: IC50; for inhibition at 1 µM: WT HIV-1 RT, 1 µM drug
T1 construct: purified RT protein (0.015 mg/mL) was incubated in a 100 µL reaction mixture

[3] = Human immunodeficiency virus 1, MT4, Table 4
[4] = Human immunodeficiency virus 1, MT4, Table 9
[5] = Table 11, CEMSS/NL4-3, NRVC = reduction in viral CPE not seen (footnote)
[6] = Human immunodeficiency virus 1, MT4, Table 10 (values in µM)
[7] = Human immunodeficiency virus 1, MT4, Table 8

For Fc1cccc(F)c1Cn1c(-c2c(F)cccc2F)nc2ccccc21 [compound 26, 1-(2,6-difluorobenzyl)-2-(2,6-difluorophenyl)benzimidazole], the EC50 (HIV-1 variant Y181C; [3]) was 15.2 µM, the EC50 (HIV-1 variant Y181C; [4]) was 14 µM and the EC50 (HIV-1 variant K101E; Human immunodeficiency virus 1, MT4, Table 4, isolate K101E) was over 20 µM. For the same compound, the EC50 (HIV-1 variant K101E; Human immunodeficiency virus 1, MT4, Table 9, isolate KIOIE) was over 20 µM, the EC50 (HIV-1 variant V179D; [3]) was 2.3 µM and the EC50 (HIV-1 variant V179D; [4]) was 2.9 µM. It also gave an EC50 (HIV-1 variant L74V; Human immunodeficiency virus 1, MT4, Table 4, isolate L74V) of 0.46 µM, an EC50 (HIV-1 variant L74V; Human immunodeficiency virus 1, MT4, Table 9, isolate 1.74 V) of 1.9 µM and an EC50 (HIV-1 variant Y188C; Human immunodeficiency virus 1, MT4, Table 4, isolate Y188C) of 11.7 µM. It also gave an EC50 (HIV-1 variant Y188C; Human immunodeficiency virus 1, MT4, Table 9, isolate Y188C) of over 10 µM, an EC50 (HIV-1 isolate 4xAZT; Human immunodeficiency virus 1, MT4, Table 4, isolate 4xAZT) of 0.27 µM and an EC50 (HIV-1 isolate 4xAZT; Human immunodeficiency virus 1, MT4, Table 9, isolate 4XAZT) of 0.3 µM. It also gave an EC50 (HIV-1 variant L100I; Human immunodeficiency virus 1, MT4, Table 4, isolate L1001) of 1.36 µM, an EC50 (HIV-1 variant L100I; Human immunodeficiency virus 1, MT4, Table 9, isolate L1001) of 1.3 µM and an EC50 (HIV-1 variant V106A; Human immunodeficiency virus 1, MT4, Table 4, isolate V106A) of over 20 µM. It also gave an EC50 (HIV-1 variant V106A; Human immunodeficiency virus 1, MT4, Table 9, isolate V106A) of over 20 µM, an EC50 (HIV-1 variant V108I; Human immunodeficiency virus 1, MT4, Table 4, isolate V108I) of 10.4 µM and an EC50 (HIV-1 variant V108I; Human immunodeficiency virus 1, MT4, Table 9, isolate V1081) of over 10 µM. For the same compound, the EC50 ([1]; Human immunodeficiency virus 1, MT4, Table 4, isolate 4xAZT/Y181C) was over 20 µM, the EC50 ([1]; Human immunodeficiency virus 1, MT4, Table 9, isolate 4XAZT /Y181C) was 20 µM and the EC50 (HIV-1 variant K103N; [3]) was 12.9 µM. It also gave an EC50 (HIV-1 variant K103N; [4]) of over 10 µM, an EC50 (HIV-1 variant A98G; Human immunodeficiency virus 1, MT4, Table 4, isolate A98G) of 4.75 µM and an EC50 (HIV-1 variant A98G; Human immunodeficiency virus 1, MT4, Table 9, isolate A98G) of 4.7 µM. The EC50 (WT virus (NL4-3); [5]) was 1.7 µM, the EC50 (NL4-3 (WT); Human immunodeficiency virus 1, NL43, MT4, Table 4, isolate NL4-3 (WT)) was 1.85 µM and the EC50 (NL4-3 (WT); Human immunodeficiency virus 1, NL43, MT4, Table 9, isolate NL4.3) was 2.2 µM. For the same compound, the EC50 ([2]; Human immunodeficiency virus 1, MT4, Table 4, isolate 4xAZT/L.1001) was 0.84 µM, the EC50 ([2]; Human immunodeficiency virus 1, MT4, Table 9, isolate 4XAZT /L1001) was 0.9 µM and the inhibition at 10 µM (HIV-1 WT RT; Table 1, WT RT, 10 µM drug concentration, read-out: %inhibn (10µM)) was 93%. For the same compound, the IC50 (HIV-1 WT RT; Table 1, quantity of drug required to reduce WT RT enzyme activity by 50%) was 0.11 µM, the “%inhibn (10µM)” value (HIV-1 WT RT; Table 2, WT RT, 10 µM drug concentration) was 93% and the IC50 (HIV-1 WT RT; Table 11, WT RT) was 0.11 µM.

Fc1cccc(F)c1Cn1c(-c2c(F)cccc2F)nc2c(Cl)cccc21 [compound 55, 4-chloro-1-(2,6-difluorobenzyl)-2-(2,6-difluorophenyl)benzimidazole] gave an EC50 (HIV-1 variant Y181C; [6]) of 8.4 µM, an EC50 (HIV-1 variant K101E; Human immunodeficiency virus 1, MT4, Table 8, isolate K101E) of over 20 µM and an EC50 (HIV-1 variant K101E; Human immunodeficiency virus 1, MT4, Table 10 (values in µM), isolate K101E) of over 20 µM. For the same compound, the EC50 (HIV-1 variant V179D; [7]) was 0.8 µM, the EC50 (HIV-1 variant L74V; Human immunodeficiency virus 1, MT4, Table 8, isolate 1.74V) was 0.5 µM and the EC50 (HIV-1 variant Y188C; Human immunodeficiency virus 1, MT4, Table 8, isolate Y 188C) was 5.4 µM. For the same compound, the EC50 (HIV-1 variant Y188C; Human immunodeficiency virus 1, MT4, Table 10 (values in µM), isolate Y188C) was 3.4 µM, the EC50 (HIV-1 isolate 4xAZT; Human immunodeficiency virus 1, MT4, Table 8, isolate 4XAZT) was 0.2 µM and the EC50 (HIV-1 variant L100I; Human immunodeficiency virus 1, MT4, Table 8, isolate 1.1001) was 0.2 µM. For the same compound, the EC50 (HIV-1 variant L100I; Human immunodeficiency virus 1, MT4, Table 10 (values in µM), isolate L1001) was 0.3 µM, the EC50 (HIV-1 variant V106A; Human immunodeficiency virus 1, MT4, Table 8, isolate V 106A) was over 10 µM and the EC50 (HIV-1 variant V108I; Human immunodeficiency virus 1, MT4, Table 8, isolate V1081) was 3.6 µM. It also gave an EC50 (HIV-1 variant V108I; Human immunodeficiency virus 1, MT4, Table 10 (values in µM), isolate V108l) of 3.2 µM, an EC50 ([1]; Human immunodeficiency virus 1, MT4, Table 8, isolate 4XAZT /Y181C) of over 20 µM and an EC50 (HIV-1 variant K103N; [7]) of over 20 µM. The EC50 (HIV-1 variant K103N; [6]) was 10.2 µM, the EC50 (HIV-1 variant A98G; Human immunodeficiency virus 1, MT4, Table 8, isolate A9SG) was 5 µM and the EC50 (WT virus (NL4-3); Table 7, concentration reducing cell killing or virus production by 50%, HIV-1 WT) was 0.44 µM. It also gave an EC50 (WT virus (NL4-3); [5]) of 0.44 µM, an EC50 (NL4-3 (WT); Human immunodeficiency virus 1, NL43, MT4, Table 8, isolate N1.43) of 0.1 µM and an EC50 (NL4-3 (WT); Human immunodeficiency virus 1, NL43, MT4, Table 10 (values in µM), isolate NL4-3 (WT)) of 0.5 µM. It also gave an EC50 ([2]; Human immunodeficiency virus 1, MT4, Table 8, isolate 4XA7T L 1001) of 0.2 µM, an inhibition at 1 µM (HIV-1 WT RT; Table 6, average of two experiments done in triplicates, read-out: %Inhibn (1µM)) of 75% and an IC50 (HIV-1 WT RT; Table 7, HIV-1 WT RT) of 2.63 µM. For the same compound, the inhibition at 1 µM (HIV-1 WT RT; Table 7, read-out: %inhibn (1µM)) was 75% and the IC50 (HIV-1 WT RT; Table 11, WT RT) was 2.63 µM.

From patent EP1210336B1, “SUBSTITUTED BENZIMIDAZOLES AS NON-NUCLEOSIDE INHIBITORS OF REVERSE TRANSCRIPTASE” (THE UNITED STATES OF AMERICA, as represented by the …, priority 1999, dated 2001)
